Target: T1, human Nav1.8 channels (Homo sapiens, UniProt Q9Y5Y9)
T1 construct: expressed in transfected cells
Assay: Nav1.8 Qube automated patch-clamp assay
Format: cell-based
Settings: human Nav1.8 stably expressed in HEK 293 cells; whole-cell voltage clamp, room temperature; resting or inactivated state not specified; read-out: IC50 values (nM) for Examples in the Nav1.8 Qube Assay
In short: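 Whole-cell patch clamp at room temperature on HEK293 cells stably expressing human Nav1.8. A 1 Hz train of ten 20 ms pulses to 10 mV from −90 mV holding, with −67 mV repolarization, was applied; first- and tenth-pulse peak currents gave resting and inactivated-state IC50s by Hill fitting.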

T1 sequence (Q9Y5Y9 whole entry): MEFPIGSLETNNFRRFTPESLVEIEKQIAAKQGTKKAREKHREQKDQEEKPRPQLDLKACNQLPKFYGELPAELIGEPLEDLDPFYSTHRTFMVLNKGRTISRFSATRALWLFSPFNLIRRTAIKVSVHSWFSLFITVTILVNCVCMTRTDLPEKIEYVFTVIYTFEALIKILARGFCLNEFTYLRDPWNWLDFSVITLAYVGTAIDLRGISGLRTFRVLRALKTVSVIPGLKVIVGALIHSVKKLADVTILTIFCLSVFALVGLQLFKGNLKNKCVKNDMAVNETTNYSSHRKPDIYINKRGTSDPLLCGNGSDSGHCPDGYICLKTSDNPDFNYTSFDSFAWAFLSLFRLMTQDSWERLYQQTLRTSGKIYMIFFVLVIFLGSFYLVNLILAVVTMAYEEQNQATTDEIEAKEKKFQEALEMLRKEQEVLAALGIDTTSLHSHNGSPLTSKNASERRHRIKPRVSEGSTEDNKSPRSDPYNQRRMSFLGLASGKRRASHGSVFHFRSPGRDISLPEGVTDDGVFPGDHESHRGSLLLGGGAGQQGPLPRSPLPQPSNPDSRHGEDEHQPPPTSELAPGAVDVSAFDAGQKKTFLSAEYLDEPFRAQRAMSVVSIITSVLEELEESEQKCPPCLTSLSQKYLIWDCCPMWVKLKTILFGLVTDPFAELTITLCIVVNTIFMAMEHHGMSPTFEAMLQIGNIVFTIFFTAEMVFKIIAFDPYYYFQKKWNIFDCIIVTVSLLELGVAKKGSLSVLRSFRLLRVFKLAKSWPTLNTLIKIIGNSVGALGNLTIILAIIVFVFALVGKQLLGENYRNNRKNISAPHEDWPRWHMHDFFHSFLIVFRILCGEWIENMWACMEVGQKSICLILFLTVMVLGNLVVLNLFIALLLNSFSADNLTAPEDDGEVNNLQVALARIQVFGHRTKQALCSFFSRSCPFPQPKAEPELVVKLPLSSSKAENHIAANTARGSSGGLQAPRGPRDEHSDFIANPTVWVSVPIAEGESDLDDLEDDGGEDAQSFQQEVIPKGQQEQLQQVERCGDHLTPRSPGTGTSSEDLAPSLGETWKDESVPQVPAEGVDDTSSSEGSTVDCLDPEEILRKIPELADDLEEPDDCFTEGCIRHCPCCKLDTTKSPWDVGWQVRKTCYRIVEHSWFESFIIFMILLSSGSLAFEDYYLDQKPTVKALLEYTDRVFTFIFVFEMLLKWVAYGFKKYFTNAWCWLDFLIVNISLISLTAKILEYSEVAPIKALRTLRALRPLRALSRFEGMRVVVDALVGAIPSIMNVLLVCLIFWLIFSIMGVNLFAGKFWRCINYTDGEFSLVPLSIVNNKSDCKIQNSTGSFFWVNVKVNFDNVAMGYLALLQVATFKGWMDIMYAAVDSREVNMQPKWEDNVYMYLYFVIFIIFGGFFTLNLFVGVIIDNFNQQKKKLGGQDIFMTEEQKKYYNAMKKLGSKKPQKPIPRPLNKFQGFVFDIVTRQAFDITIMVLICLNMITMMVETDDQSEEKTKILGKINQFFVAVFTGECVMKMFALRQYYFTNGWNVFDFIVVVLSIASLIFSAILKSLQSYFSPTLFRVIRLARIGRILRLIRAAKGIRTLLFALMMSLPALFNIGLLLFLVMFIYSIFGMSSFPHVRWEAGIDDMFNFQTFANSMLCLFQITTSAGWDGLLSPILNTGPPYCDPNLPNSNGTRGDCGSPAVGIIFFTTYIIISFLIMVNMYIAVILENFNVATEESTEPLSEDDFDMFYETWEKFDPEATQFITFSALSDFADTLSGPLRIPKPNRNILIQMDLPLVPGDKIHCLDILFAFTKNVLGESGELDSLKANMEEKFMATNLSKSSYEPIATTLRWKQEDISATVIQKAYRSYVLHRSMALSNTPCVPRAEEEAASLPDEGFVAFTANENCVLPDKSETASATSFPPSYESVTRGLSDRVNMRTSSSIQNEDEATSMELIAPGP

SMILES	IC50 [nM]
NS(=O)(=O)c1cc(NC(=O)c2cc(C(F)(F)F)cnc2N2CCN(CC(F)(F)F)CC2)ccn1 [Example 100, N-(2-sulfamoyl-4-pyridyl)-2-[4-(2,2,2-trifluoroethyl)piperazin-1-yl]-5-(trifluoromethyl)pyridine-3-carboxamide]	4630
C[C@@H]1CN(c2ncc(C(F)(F)F)cc2C(=O)Nc2ccnc(S(N)(=O)=O)c2)C[C@@H](C(F)(F)F)O1 [Example 102, 2-((2R,6S)-2-methyl-6-(trifluoromethyl)morpholino)-N-(2-sulfamoylpyridin-4-yl)-5-(trifluoromethyl)nicotinamide]	27
C[C@H]1CN(c2ncc(C(F)(F)F)cc2C(=O)Nc2ccnc(S(N)(=O)=O)c2)C[C@H](C(F)(F)F)O1 [Example 103, 2-((2S,6R)-2-methyl-6-(trifluoromethyl)morpholino)-N-(2-sulfamoylpyridin-4-yl)-5-(trifluoromethyl)nicotinamide]	166
NS(=O)(=O)c1cc(NC(=O)c2cc(C(F)(F)F)cnc2N2CCCO[C@H](C(F)(F)F)C2)ccn1 [Example 104, (S)-N-(2-sulfamoylpyridin-4-yl)-5-(trifluoromethyl)-2-(2-(trifluoromethyl)-1,4-oxazepan-4-yl)nicotinamide]	56
NS(=O)(=O)c1cc(NC(=O)c2cc(C(F)(F)F)cnc2N2CCCO[C@@H](C(F)(F)F)C2)ccn1 [Example 105, (R)-N-(2-sulfamoylpyridin-4-yl)-5-(trifluoromethyl)-2-(2-(trifluoromethyl)-1,4-oxazepan-4-yl)nicotinamide]	696
CC1(C)CO[C@@H](C(F)(F)F)CN(c2ncc(C(F)(F)F)cc2C(=O)Nc2ccnc(S(N)(=O)=O)c2)C1 [Example 106, 2-[(2R)-6,6-dimethyl-2-(trifluoromethyl)-1,4-oxazepan-4-yl]-N-(2-sulfamoyl-4-pyridyl)-5-(trifluoromethyl)pyridine-3-carboxamide]	103
CC1(C)CN(c2ncc(C(F)(F)F)cc2C(=O)Nc2ccnc(S(N)(=O)=O)c2)CCCO1 [Example 107, 2-(2,2-dimethyl-1,4-oxazepan-4-yl)-N-(2-sulfamoyl-4-pyridyl)-5-(trifluoromethyl)pyridine-3-carboxamide]	139
C[C@H]1CCN(c2ncc(C(F)(F)F)cc2C(=O)Nc2ccnc(S(N)(=O)=O)c2)CCO1 [Example 108, 2-[(7S)-7-methyl-1,4-oxazepan-4-yl]-N-(2-sulfamoyl-4-pyridyl)-5-(trifluoromethyl)pyridine-3-carboxamide]	191
CC(C)(C)NS(=O)(=O)c1cc(NC(=O)c2cc(Cl)cnc2N2CCCC(F)(F)CC2)ccn1 [Example 109, N-[2-(tert-butylsulfamoyl)-4-pyridyl]-5-chloro-2-(4,4-difluoroazepan-1-yl)pyridine-3-carboxamide]	289
C[C@H]1CN(c2ncc(C(F)(F)F)cc2C(=O)Nc2ccnc(S(N)(=O)=O)c2)CCO1 [Example 110, 2-[(2S)-2-methylmorpholin-4-yl]-N-(2-sulfamoyl-4-pyridyl)-5-(trifluoromethyl)pyridine-3-carboxamide]	505
C[C@@H]1CN(c2ncc(C(F)(F)F)cc2C(=O)Nc2ccnc(S(N)(=O)=O)c2)CCCO1 [Example 111, 2-[(2R)-2-methyl-1,4-oxazepan-4-yl]-N-(2-sulfamoyl-4-pyridyl)-5-(trifluoromethyl)pyridine-3-carboxamide]	633
CC1(O)CCCN(c2ncc(C(F)(F)F)cc2C(=O)Nc2ccnc(S(N)(=O)=O)c2)C1 (stereo not shown) [Example 112, 2-(3-hydroxy-3-methyl-1-piperidyl)-N-(2-sulfamoyl-4-pyridyl)-5-(trifluoromethyl)pyridine-3-carboxamide]	8410
CC1(C)c2cc(F)ccc2CN1c1ncc(C(F)(F)F)cc1C(=O)Nc1ccnc(S(N)(=O)=O)c1 [Example 113, 2-(6-fluoro-1,1-dimethyl-isoindolin-2-yl)-N-(2-sulfamoyl-4-pyridyl)-5-(trifluoromethyl)pyridine-3-carboxamide]	9330

From US20210387966A1, “2-AMINO-N-HETEROARYL-NICOTINAMIDES AS NAV1.8 INHIBITORS” (Merck Sharp & Dohme Corp., priority 2018, published 2021)
